This note sets out measurements from patent publication US20210315881A1, “COMBINATION OF HISTONE DEACETYLASE INHIBITOR AND PROTEIN KINASE INHIBITOR AND PHARMACEUTICAL USE THEREOF” (SHENZHEN CHIPSCREEN BIOSCIENCES CO., LTD., priority 2018, published 2021).

In experiment [1] the test system is Bel-7402 cells. Briefly: MTS cell viability assay. The settings on record: Bel-7402, monotreatment, 120 hours, dose-dependent. The format is cell-based, human. On the procedure:
(§1) Human hepatoma cell line Bel-7402 and Bel-7404 were purchased from the Cell Resource Center of Shanghai Institutes for Biological Sciences, CAS, and routinely cultured at 37° C. under 5% CO2, in a culture medium of RPMI-1640 (Gibco) containing 10% fetal bovine serum (FBS; Gibco) and 1% Penicillin-Streptomycin (HyClone). Trypsin was purchased from Gibco. Crystal violet, RNase A (10 mg/mL) solution, propidium iodide (PI), Triton X-100 were purchased from Sangon Biotech (Shanghai) Co., Ltd. MTS cell viability assay kits, Caspase-Glo 3/7 assay kits were purchased from Promega. Nude mice were purchased from Guangdong Medical Laboratory Animal Center.
(§2) The Bel-7402, Bel-7404 cell lines were digested by trypsin, collected and counted, and then seeded in a 96-well cell culture plate at the density of 3,000 cells/180 μL in each well, and cultured at 37° C. under 5% CO2. […] After incubation at 37° C. for about 1 hour, the absorbance of each well was read at 490 nm wavelength with a microplate reader. The OD490-T value of each administered well and the OD490-T0 value of the negative control well after background deduction were obtained by subtracting OD490-BLK from the absorbance reading value of each well.
(§3) The relative survival rate of the cells in each administered well was calculated according to the following formula: […]
A general note: Tetrazolium assays rely on reduction of a dye to a coloured formazan, in cell work by metabolically active cells.

Experiment [2] concerns Bel-7404 cells. Briefly: MTS cell viability assay. Type of experiment: cell-based, human. As to conditions: Bel-7404, monotreatment, 120 hours, dose-dependent. As to the method: as §1, §2, §3
For experiment [3], the system named is SMMC-7721 cells. Briefly: Colony forming assay (crystal violet). The format is cell-based. As to conditions: SMMC-7721, Chiauranib monotreatment 5 μM, 2-3 weeks. On the procedure:
(§4) The SMMC-7721, Bel-7404 cell lines at the log phase stage were digested by trypsin, collected and counted, then seeded in a 6-well cell culture plate at the density of 500 cells/1.8 mL in each well, and cultured at 37° C. under 5% CO2. After cultured overnight, the cells were administered according to the grouping and the final concentration dosages shown in FIG. 2 (the final volume of each well after administration was 2 mL). The culture media and drugs were replaced every 3 days to keep the culture system and the dosage for each well stable.
After cultured for 2-3 weeks, when there were visible cell colonies in the culture plate, the culture was terminated. The supernatants were discarded, and the plate was washed carefully with PBS twice. 1 mL of 75% ethanol solution was added to each well to fix the cells, and the fixative solution was discarded after 15 min. Then the cells were stained for 15 min by adding 1 mL of crystal violet solution to each well, and the staining solution was washed slowly with running water and air dried. The stained positive cell colonies in each well of the culture plate were photographed to compare their density.

Experiment [4] deals with Bel-7404 cells. Briefly: Colony forming assay (crystal violet). The format is cell-based, human. The settings on record: Bel-7404, Chiauranib monotreatment 3 μM, 2-3 weeks. As to the method:
as §1, §4
After cultured for 2-3 weeks, when there were visible cell colonies in the culture plate, the culture was terminated. The supernatants were discarded, and the plate was washed carefully with PBS twice. […]

Experiment [5] concerns Bel-7404 cells. Briefly: Cell cycle analysis by flow cytometry with PI staining. The format is cell-based, human. As to conditions: Bel-7404, 3 μM Chiauranib, 48 hours. On the procedure:
as §1
The cells of Bel-7404 at the log phase stage were digested by trypsin, collected and counted. The cells were seeded in a 6-well plate at the density of 10^6 cells per well in a total of 18 wells. […] The fixed samples were allowed to stand at 4° C. for more than 12 hours, and analyzed by the flow cytometry assay within 1 week.
PBS, 10 mg/mL PI stock solution, 10 mg/mL RNase A solution and Triton X-100 were mixed at a ratio of 1000:5:2:1 to form a working dye solution. […] The filtrate was analyzed for cell cycles by the flow cytometry assay (each sample counted 20,000 cells).

In experiment [6] the test system is Bel-7404 cells. Briefly: Cell apoptosis by Caspase 3/7 assay. As to conditions: Bel-7404, 3 μM Chiauranib monotreatment, 48 hours. The format is cell-based, human. On the procedure: as §1
The cells of Bel-7404 at the log phase stage were digested by trypsin, collected and counted. The cells were seeded in a 96-well plate at density of 2000 cells per well in a total of 18 wells. […]
The 96-well plates containing the treated cells were taken out of the incubator and equilibrated to room temperature. […] The […] value of each sample was measured by a luminometer. The […] value can directly reflect the proportion of apoptotic cells in each well, and can be used to calculate and compare the cell viability of the different groups.

The test system of experiment [7] is Bel-7404 cell xenograft. Briefly: Tumor cell xenograft model in nude mice. The format is in vivo. As to conditions: 2.5 mg/kg Chiauranib, intragastrically once a day, 33 days, vs solvent control. As to the method: The cells of Bel-7404 were cultured to expend to a large amount, and maintained at a log phase state. After the number of the cells reached the required amount, they were digested with trypsin, collected, washed twice with a large amount of PBS to remove the trypsin and serum, and centrifuged at 800 rpm for 10 min at room temperature and the cell supernatants were discarded. The cells were resuspended in the FBS-free RPIM-1640 culture medium, and adjusted the cell density to 10^7/300 μL.
Under aseptic conditions, each nude mouse was injected subcutaneously on the back with 300 μL/injection, one injection per nude mouse. A 1 mL disposable medical syringe for injection was used, and the injection site and direction were roughly same for each nude mouse.
One day after cell implanting, the nude mice were randomly divided into four groups (namely, solvent control group, Chiauranib 2.5 mg/kg group, Chidamide 20 mg/kg group and the combined administration group), housed in separate cages after marked, administered in groups and tumor formation of each mouse was observed every day. […] Every 2 days, the longest diameter of the tumor (length) and the widest diameter (width) perpendicular to the longest diameter were measured with a vernier caliper. The tumor volume was calculated by the formula TS=length×(width)^2/2 and recorded. […]

For `COc1ccc2c(Oc3ccc4c(C(=O)Nc5ccccc5N)cccc4c3)ccnc2c1` [Chiauranib], the “inhibitory effect on tumor cell proliferation (survival rate)” value in experiment [1] and in experiment [2] was “a certain inhibitory effect on tumor cell proliferation” each time. Also, the “formation of cell colonies” value is on record as “relatively significant effect on the formation of cell colonies” in experiment [3] and “affected somewhat on the formation of cell colonies” in experiment [4]. Besides, the “cells in G2/M phase and polyploid cells” value in experiment [5] was “slightly increased”. For the same compound, the “proportion of apoptotic cells” value in experiment [6] is “increased the proportion of apoptotic cells to a certain extent”. The “tumor volume of tumor-bearing nude mice” value in experiment [7] was “inhibited to a certain extent”.
